Laboratory results reported in patent US6359176B1, “Cationic surfactants, process for producing the same and utilization thereof” (Matsumoto Yushi-Seiyaku Co., Ltd., priority 1999, dated 2002).

Tests used:
[1] = test system: activated sludge; test: Biodegradability: degradation by microorganisms with degradation tester and closed system oxygen consumption meter; details: 14 days biodegradability test
Experimental: The biodegradability of the derivatives was determined by checking the degree of degradation of those chemicals by microorganisms (procedures defined in Japanese domestic low for regulation of chemical substances and in OECD) with a degradation tester and closed system oxygen consumption meter. The test was continued for 14 days and the biodegradability data was calculated into percentage.
The 100-% degradability in the testing means that whole of a test sample has been degraded into inorganic substances such as carbon dioxide.

[2] = Determination of craft point (temperature at which 1 wt % surfactant dissolves clearly, visual inspection); assay type: physicochemical; details: 1 weight % aqueous solution in pure water
Experimental: (§1) Determination of craft point, critical micelle concentration and surface tension
(§2) An aqueous solution of 1 weight % of a surfactant (solution with pure water) was prepared and the craft point, at which a surfactant dissolves clearly, was determined with visual inspection. And the aqueous solution of several surfactants with varied concentration was prepared with pure water and their surface tension at 25° C. was determined.

[3] = Determination of critical micelle concentration and surface tension of aqueous surfactant solutions; assay type: physicochemical; details: pure water, 25° C.; for Surface tension γ cmc (mN/m): at cmc
Experimental: as §1, §2

CCCCCCCCCCCCCCCC[N+](C)(C)C.[Br-] [Cetyl trimethyl ammonium bromide]
Effect on activated sludge (in words) [1]: inhibited the propagation of activated sludge

CCCCCCCCCCCC(=O)OCC(O)C(O)C(O)C(O)C[N+](C)(C)C.[Cl-] (stereo not drawn) [Monolaurate derivative]
Craft point (1 wt %, ° C.) [2]: <0 °C
Critical micelle concentration cmc [3]: 0.0012 mol/L
Surface tension γ cmc (mN/m) [3]: 30.2 mN/m

CCCCCCCCCCCCCC(=O)OCC(O)C(O)C(O)C(O)C[N+](C)(C)C.[I-] (stereo not drawn) [Monomyristate derivative]
Craft point (1 wt %, ° C.) [2]: <0 °C
Critical micelle concentration cmc [3]: 0.00034 mol/L
Surface tension γ cmc (mN/m) [3]: 34.2 mN/m

CCCCCCCCCCCCCCCC(=O)OCC(O)C(O)C(O)C(O)C[N+](C)(C)C.[Cl-] (stereo not drawn) [Monopalmitate derivative]
Craft point (1 wt %, ° C.) [2]: 33.5 °C

CCCCCCCCCCCCCCCCCC(=O)OCC(O)C(O)C(O)C(O)C[N+](C)(C)C.[I-] (stereo not drawn) [Monostearate derivative]
Craft point (1 wt %, ° C.) [2]: 40.5 °C
